Tests used:
Type in all cases: in vivo, mouse
G1H-G93A transgenic mice [1] = experiment: Exercise tolerance test: footprint test; conditions: 5 mg/kg oral daily from 80th day (before onset), score 0-4
Protocol: (§1) The following five kinds of exercise tolerance tests were conducted every fifth day from the 70th day after birth to evaluate the ability to exercise in the respective exercise tolerance tests. That is, the days for the exercise tolerance tests were every fifth days, such as the 70th day, 75th day, 80th day, 85th day and so on, after birth. The exercise tolerance tests were conducted throughout the survival period, and the post-mortem evaluation was based on the definitions of the following five kinds of exercise tolerance tests.
Both hindlimbs of a mouse are dipped in a black ink bottle, and then the mouse is allowed to walk on white paper. The footprints of the two hindlimbs of the mouse after the walking are analyzed. […] The post-mortem evaluation of the footprint test is defined as score 4.

G1H-G93A transgenic mice [2] = experiment: Exercise tolerance test: beam balance test; conditions: 5 mg/kg oral daily from 80th day (before onset), score 0-2
Protocol: as §1
The apparatus used in the beam balance test is constructed by maintaining a wooden beam having a diameter of 1.5 cm horizontally, and installing platforms which serve as footholds, on the respective sides in a distance of 30 cm. A mouse is placed on the platform on one side, and the time taken by the mouse to cross over the beam which is 30 cm in length and to arrive at the platform on the opposite side is measured. The evaluation of the beam balance test for the mouse was performed based on the following criteria: Score 0=The time is 10 seconds or less; Score 1=The time is more than 10 seconds to 15 seconds; and Score 2=The time is more than 15 seconds, or the mouse falls down. The post-mortem evaluation of the beam balance test is defined as score 2.

G1H-G93A transgenic mice [3] = experiment: Histopathological study: number of spinal cord anterior horn cells; conditions: end stage; for difference to placebo group in number of spinal cord anterior horn cells (cervical, thoracic or lumbar segment): P>0.05, Mann-Whitney's U test; for number of spinal cord anterior horn cells in the cervical segment / number of spinal cord anterior horn cells in the lumbar segment / number of spinal cord anterior horn cells in the thoracic segment: per five HE sections, average±SD
Protocol: The mouse supplied to the experiment is anesthetized by intraperitoneal injection of pentobarbital sodium in an amount of 1 mL per kg of the mouse body weight. After confirming that the mouse is completely under anesthesia, laparotomy and thoracotomy are performed, and blood is completely removed from the visceral organs of the whole body by perfusion of physiological saline at 37° C. via the left ventricle and aorta. The complete removal of blood from the visceral organs of the whole body is carried out by confirming complete removal of the blood of the aorta in the thoracic part and abdominal part, mesenteric arteries, liver, kidneys, and small arteries on the surfaces of the stomach, small intestine and large intestine under direct visual inspection. Subsequently, perfusion of 50 mL of physiological saline at 37° C. is performed. Immediately thereafter, the perfusion is performed with a fixative (4% paraformaldehyde supplemented with 0.1 M cacodylate buffer, pH 7.4). The spinal cord is removed and re-fixed with the same fixative for 18 hours. After the fixation of spinal cord tissue, each spinal cord segments is cut out to examine the spinal cord tissue. For the detailed analyses of spinal cord tissues, two segments of the cervical spinal cord (upper and lower cervical segments), three segments of the thoracic spinal cord (upper, middle, and lower thoracic segments), and two segments of lumbar spinal cord (upper and lower lumbar segments) were cut out to provide seven segments in total. Each spinal cord segments are respectively embedded in paraffin to produce paraffin blocks, and then cut into paraffin sections having a thickness of 5 μm using a microtome. The paraffin sections are subjected to hematoxylin and eosin (HE) staining.
For a quantitative analysis, serial 25 paraffin sections having a thickness of 5 μm were produced in series from the respective segment paraffin blocks of the spinal cord, and the 1st section, 7th section, 13th section, 19th section and 25th section were selected and subjected to HE staining. Specifically, paraffin sections were selected such that one paraffin section was taken at a […], and 5 HE preparations were produced from a single spinal cord segments. Therefore, 10 HE preparations from two areas for the entire cervical spinal cord, 15 HE preparations from three areas for the entire thoracic spinal cord, and 10 HE preparations from two areas for the entire lumbar spinal cord, were produced.
In order to calculate the number of motor neurons in the anterior horn, all of the HE stained sections were observed under a light microscope (BX41: Olympus Corp., Tokyo, Japan) equipped with a 3CCD digital color camera system for the microscope (FX380: Olympus Corp., Tokyo, Japan). Subsequently, photographs of the anterior horn region (corresponding to VII, VIII and IX Rexed areas) in the HE stained sections of the respective myelomere tissues of the spinal cord were taken, and the images were analyzed using an image analysis-filing software (FLVFS-LS Ver. 1.12: Olympus Corp., Tokyo, Japan). In regard to the definition of the motor neuron in the anterior horn of spinal cord (spinal cord anterior horn cells), cells in the HE stained sections, which have a nucleus carrying a definite nucleolus and contain a cell body having a diameter of 25 μm or more, were selected as the spinal cord anterior horn cells (Klivenyi P, et al., Nature Med 1999; 5:347-351, Kong J & Xu Z, J Neurosci 1998; 18:3241-3250, and Stephens B, et al., Neuropathol Appl Neurobiol 2001; 27:352-361). Based on this definition, the number of spinal cord anterior horn cells was counted for each of the HE stained sections. The respective numbers of spinal cord anterior horn cells in the cervical spinal cord, thoracic spinal cord and lumbar spinal cord of one mouse was calculated from the total number of spinal cord anterior horn cells in five HE stained sections. […]

[4] = 5 mg/kg oral daily from 80th day after birth (before onset)
[5] = 5 mg/kg oral daily from the day of onset (after onset)

Compound | Footprint test score (G1H-G93A transgenic mice [1]; 70th day after birth) | Footprint test score (G1H-G93A transgenic mice [1]; 75th day after birth) | Footprint test score (G1H-G93A transgenic mice [1]; 80th day after birth) | Footprint test score (G1H-G93A transgenic mice [1]; 85th day after birth) | Footprint test score (G1H-G93A transgenic mice [1]; 90th day after birth) | Footprint test score (G1H-G93A transgenic mice [1]; 95th day after birth) | Footprint test score (G1H-G93A transgenic mice [1]; 100th day after birth) | Footprint test score (G1H-G93A transgenic mice [1]; 105th day after birth) | Footprint test score (G1H-G93A transgenic mice [1]; 110th day after birth) | Footprint test score (G1H-G93A transgenic mice [1]; 115th day after birth) | Footprint test score (G1H-G93A transgenic mice [1]; 120th day after birth) | Footprint test score (G1H-G93A transgenic mice [1]; 125th day after birth) | Footprint test score (G1H-G93A transgenic mice [1]; 130th day after birth) | Footprint test score (G1H-G93A transgenic mice [1]; 135th day after birth) | Footprint test score (G1H-G93A transgenic mice [1]; 140th day after birth) | Beam balance test score (G1H-G93A transgenic mice [2]; 70th day after birth, 5 mg/kg) | Beam balance test score (G1H-G93A transgenic mice [2]; 75th day after birth, 5 mg/kg) | Beam balance test score (G1H-G93A transgenic mice [2]; 80th day after birth, 5 mg/kg) | Beam balance test score (G1H-G93A transgenic mice [2]; 85th day after birth, 5 mg/kg) | Beam balance test score (G1H-G93A transgenic mice [2]; 90th day after birth, 5 mg/kg) | other results
N#Cc1cc(-c2n[nH]c(-c3ccncc3)n2)ccn1 [compound (b), 4-(5-pyridin-4-yl-1H-[1,2,4]triazol-3-yl)pyridine-2-carbonitrile] | 0.0±0.0 | 0.0±0.0 | 0.0±0.0 | 0.0±0.0 | 0.0±0.0 | 0.0±0.0 | 0.0±0.0 | 0.0±0.0 | 0.1±0.3 | 0.6±0.7 | 1.8±1.0 | 2.8±0.4 | 3.4±0.5 | 3.9±0.3 | 4.0±0.0 | 0.0±0.0 | 0.0±0.0 | 0.0±0.0 | 0.0±0.0 | 0.0±0.0 | Beam balance test score (G1H-G93A transgenic mice [2]; 95th day after birth, 5 mg/kg): 0.0±0.0; Beam balance test score (G1H-G93A transgenic mice [2]; 100th day after birth, 5 mg/kg): 0.0±0.0; Beam balance test score (G1H-G93A transgenic mice [2]; 105th day after birth, 5 mg/kg): 0.0±0.0; Beam balance test score (G1H-G93A transgenic mice [2]; 110th day after birth, 5 mg/kg): 0.1±0.3; Beam balance test score (G1H-G93A transgenic mice [2]; 115th day after birth, 5 mg/kg): 0.6±0.7; Beam balance test score (G1H-G93A transgenic mice [2]; 120th day after birth, 5 mg/kg): 1.5±0.5; Beam balance test score (G1H-G93A transgenic mice [2]; 125th day after birth): 2.0 ± 0.0; Beam balance test score (G1H-G93A transgenic mice [2]; 130th day after birth): 2.0 ± 0.0; Beam balance test score (G1H-G93A transgenic mice [2]; 135th day after birth): 2.0 ± 0.0; Beam balance test score (G1H-G93A transgenic mice [2]; 140th day after birth): 2.0 ± 0.0; Beam balance test score (G1H-G93A transgenic mice [2]; from the 125th day to 140th day after birth): 2.0±0.0; difference to placebo group in number of spinal cord anterior horn cells (cervical, thoracic or lumbar segment) (G1H-G93A transgenic mice [3]; [4]): no significant difference; number of spinal cord anterior horn cells in the cervical segment (G1H-G93A transgenic mice [3]; [4]): 4.6±2.0; number of spinal cord anterior horn cells in the lumbar segment (G1H-G93A transgenic mice [3]; [4]): 5.3±2.7; number of spinal cord anterior horn cells in the thoracic segment (G1H-G93A transgenic mice [3]; [4]): 1.9±1.7
CC(C)(C)COc1ccc(-n2cc(C(=O)O)cn2)cc1C#N [compound (a), 1-[3-cyano-4-(2,2-dimethylpropoxy)phenyl]-1H-pyrazole-4-carboxylic acid] | 0.0±0.0 | 0.0±0.0 | 0.0±0.0 | 0.0±0.0 | 0.0±0.0 | 0.0±0.0 | 0.0±0.0 | 0.0±0.0 | 0.1±0.3 | 0.6±0.7 | 1.8±0.9 | 2.8±0.4 | 3.4±0.5 | 3.9±0.3 | 4.0±0.0 | 0.0±0.0 | 0.0±0.0 | 0.0±0.0 | 0.0±0.0 | 0.0±0.0 | Beam balance test score (G1H-G93A transgenic mice [2]; 95th day after birth, 5 mg/kg): 0.0±0.0; Beam balance test score (G1H-G93A transgenic mice [2]; 100th day after birth, 5 mg/kg): 0.0±0.0; Beam balance test score (G1H-G93A transgenic mice [2]; 105th day after birth, 5 mg/kg): 0.0±0.0; Beam balance test score (G1H-G93A transgenic mice [2]; 110th day after birth, 5 mg/kg): 0.1±0.3; Beam balance test score (G1H-G93A transgenic mice [2]; 115th day after birth, 5 mg/kg): 0.7±0.8; Beam balance test score (G1H-G93A transgenic mice [2]; 120th day after birth, 5 mg/kg): 1.2±0.9; Beam balance test score (G1H-G93A transgenic mice [2]; 125th day after birth, 5 mg/kg): 1.7±0.5; Beam balance test score (G1H-G93A transgenic mice [2]; 130th day after birth): 2.0 ± 0.0; Beam balance test score (G1H-G93A transgenic mice [2]; 135th day after birth): 2.0 ± 0.0; Beam balance test score (G1H-G93A transgenic mice [2]; 140th day after birth): 2.0 ± 0.0; Beam balance test score (G1H-G93A transgenic mice [2]; from the 130th day to 140th day after birth): 2.0±0.0; difference to placebo group in number of spinal cord anterior horn cells (cervical, thoracic or lumbar segment) (G1H-G93A transgenic mice [3]; [4]): no significant difference; difference to placebo group in number of spinal cord anterior horn cells (cervical, thoracic or lumbar segment) (G1H-G93A transgenic mice [3]; [5]): no significant difference; number of spinal cord anterior horn cells in the cervical segment (G1H-G93A transgenic mice [3]; [4]): 3.3±3.1; number of spinal cord anterior horn cells in the lumbar segment (G1H-G93A transgenic mice [3]; [4]): 3.7±3.3; number of spinal cord anterior horn cells in the thoracic segment (G1H-G93A transgenic mice [3]; [4]): 1.6±2.1; number of spinal cord anterior horn cells in the cervical segment (G1H-G93A transgenic mice [3]; [5]): 4.8±3.7; number of spinal cord anterior horn cells in the lumbar segment (G1H-G93A transgenic mice [3]; [5]): 4.1±4.4; number of spinal cord anterior horn cells in the thoracic segment (G1H-G93A transgenic mice [3]; [5]): 2.3±2.2
